Assay results published in patent USRE47689E1, “Compounds for treating spinal muscular atrophy” (PTC Therapeutics, Inc., priority 2011, dated 2019).
Where two headings read alike, the source gives them in different places.

Key:
[1] = system: SMN2 minigene (full length SMN2 minigene mRNA containing SMN2 exon 7); assay: SMN2 minigene mRNA splicing RT-qPCR assay in cultured cells; type: cell-based, human; settings: Homo sapiens, HEK293-H, read-out: EC1.5x for production of full length SMN2 mRNA
How it was run: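 Full-length SMN2 minigene mRNA (exon 7 included), minigene-specific and not endogenous SMN, quantified by RT-qPCR multiplexed with GAPDH in stably transfected HEK293H cells after 24 h compound exposure at 37° C. Abundance from efficiency-corrected Ct, normalized to GAPDH and vehicle; EC1.5x reported as star bins.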

[2] = system: Smn protein; assay: Smn protein assay in cultured cells (SMN HTRF); type: cell-based, human; settings: 48 hours; for EC1.5x (concentration giving 1.5-fold Smn protein increase): SMA Type 1 patient fibroblast cells (GM03813), 7-point concentration curve, SMN HTRF, concentration producing 1.5 times Smn protein vs DMSO vehicle control, read-out: EC1.5x for Smn protein expression; for maximum fold (Fold) increase of Smn protein: SMA patient fibroblast cells, 7-point concentration data, fold increase relative to vehicle control (SMN HTRF)
How it was run: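 Smn in SMA fibroblast lysates, measured by anti-SMN HTRF after 48 h compound exposure; EC1.5x from fold change over vehicle.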

[3] = HEK293H cells stably transfected with SMN2-A minigene, 24 hours, 7-point concentration curve, 1.5-fold relative to vehicle-treated cells

Structure (SMILES) | melting point | EC (1.5-fold) [1, 3] | EC1.5x (concentration giving 1.5-fold Smn protein increase) [2] | maximum fold (Fold) increase of Smn protein [2] | EC (1.5-fold) ([1]; 24 h)
Cc1ccn2nc(-c3cc4ccc(N5C[C@@H](C)N[C@@H](C)C5)cc4oc3=O)cc2c1 [Compound 304, 7-[(3R,5S)-3,5-dimethylpiperazin-1-yl]-3-(5-methylpyrazolo[1,5-a]pyridin-2-yl)-2H-chromen-2-one] | 200 to 202 °C | 0.1 to 0.3 µM | 1000 to 3000 nM | *** (fold increase between >1.35 and ≤1.5) | –
O=c1oc2cc(CN3CCC(O)C3)ccc2cc1-c1nc2c(Cl)cccc2s1 (stereo not drawn) [Compound 272, 3-(4-chloro-1,3-benzothiazol-2-yl)-7-[(3-hydroxypyrrolidin-1-yl)methyl]-2H-chromen-2-one] | 188 to 192 °C | 1 to 3 µM | – | ** (fold increase between >1.2 and ≤1.35) | –
C[C@@H]1CN(c2ccc3cc(-c4cn5cc(F)cc(F)c5n4)c(=O)oc3c2)C[C@H](C)N1 [Compound 523, 3-(6,8-difluoroimidazo[1,2-a]pyridin-2-yl)-7-[(3R,5S)-3,5-dimethylpiperazin-1-yl]-2H-chromen-2-one] | 267 to 277 °C | 0.3 to 1 µM | – | ** (fold increase between >1.2 and ≤1.35) | –
Cc1cn2cc(-c3cc4ccc(NC5CCNCC5)cc4oc3=O)nc2c(C)n1 [Compound 562, 3-(6,8-dimethylimidazo[1,2-a]pyrazin-2-yl)-7-(piperidin-4-ylamino)-2H-chromen-2-one] | 255 to 261 °C | < 0.1 µM | < 300 nM | **** (fold increase between >1.5 and ≤1.65) | –
Cc1cccn2cc(-c3cc4ccc(N5CCN6CCC5CC6)cc4oc3=O)nc12 [Compound 505, 7-(1,4-diazabicyclo[3.2.2]non-4-yl)-3-(8-methylimidazo[1,2-a]pyridin-2-yl)-2H-chromen-2-one] | 278 °C (dec.) | – | – | * (maximum fold increase of ≤1.2) | 3 to 30 µM
O=c1oc2cc(CN3CCNCC3)ccc2cc1-c1nc2c(Cl)cccc2s1 [Compound 7, 3-(4-chloro-1,3-benzothiazol-2-yl)-7-(piperazin-1-ylmethyl)-2H-chromen-2-one] | 222 to 226 °C | 3 to 30 µM | – | * (maximum fold increase of ≤1.2) | –
COc1cccc(-c2cc3ccc(N4CCN[C@@H](C)C4)cc3oc2=O)n1 [Compound 362, 3-(6-methoxypyridin-2-yl)-7-[(3S)-3-methylpiperazin-1-yl]-2H-chromen-2-one] | 155 to 157 °C | 0.3 to 1 µM | – | ** (fold increase between >1.2 and ≤1.35) | –
Cc1cn2cc(-c3cc4ccc(N5CCCNCC5)cc4oc3=O)cc2cn1 [Compound 638, 7-(1,4-diazepan-1-yl)-3-(3-methylpyrrolo[1,2-a]pyrazin-7-yl)-2H-chromen-2-one] | 178 to 181 °C | < 0.1 µM | < 300 nM | **** (fold increase between >1.5 and ≤1.65) | –
O=c1oc2cc(N3CCNCC3)cc(F)c2cc1-c1cn2cccnc2n1 [Compound 312, 5-fluoro-3-(imidazo[1,2-a]pyrimidin-2-yl)-7-(piperazin-1-yl)-2H-chromen-2-one] | 298 to 302 °C | 0.3 to 1 µM | – | ** (fold increase between >1.2 and ≤1.35) | –
Cc1cn2cc(-c3cc4ccc(N5CCC(N(C)C)C5)cc4oc3=O)nc2s1 (stereo not drawn) [Compound 154, 7-[3-(dimethylamino)pyrrolidin-1-yl]-3-(2-methylimidazo[2,1-b][1,3]thiazol-6-yl)-2H-chromen-2-one] | 180 to 183 °C | 3 to 30 µM | – | * (maximum fold increase of ≤1.2) | –
O=c1oc2cc(N3CCCNCC3)cc(F)c2cc1-c1nc2c(F)cccc2o1 [Compound 368, 7-(1,4-diazepan-1-yl)-5-fluoro-3-(4-fluoro-1,3-benzoxazol-2-yl)-2H-chromen-2-one] | 240 to 245 °C | 0.3 to 1 µM | – | ** (fold increase between >1.2 and ≤1.35) | –
Cc1ccc2nc(-c3cc4ccc(N5CCNCC5)c(F)c4oc3=O)cn2c1 [Compound 156, 8-fluoro-3-(6-methylimidazo[1,2-a]pyridin-2-yl)-7-(piperazin-1-yl)-2H-chromen-2-one] | 313 to 319 °C | 1 to 3 µM | – | ** (fold increase between >1.2 and ≤1.35) | –

The next lines start with results.

melting point | Structure (SMILES) | EC (1.5-fold) [1, 3] | EC1.5x (concentration giving 1.5-fold Smn protein increase) [2] | maximum fold (Fold) increase of Smn protein [2] | EC (1.5-fold) ([1]; 24 h)
135 to 138 °C | CCN1C[C@@H]2C[C@H]1CN2c1ccc2cc(-c3cn4cc(Cl)nc(C)c4n3)c(=O)oc2c1 [Compound 791, 3-(6-chloro-8-methylimidazo[1,2-a]pyrazin-2-yl)-7-[(1S,4S)-5-ethyl-2,5-diazabicyclo[2.2.1]hept-2-yl]-2H-chromen-2-one] | < 0.1 µM | 1000 to 3000 nM | *** (fold increase between >1.35 and ≤1.5) | –
300 to 302 °C | Cc1cn2cc(-c3cc4ccc(C5CCN(C)CC5)cc4oc3=O)cnc2n1 [Compound 835, 3-(2-methylimidazo[1,2-a]pyrimidin-6-yl)-7-(1-methylpiperidin-4-yl)-2H-chromen-2-one] | 0.3 to 1 µM | 300 to 1000 nM | ***** (fold increase >1.65) | –
251 to 256 °C | Cc1cc2cc(-c3cc4ccc(N5CCN[C@H](C)C5)cc4oc3=O)oc2c(C)n1 [Compound 806, 3-(5,7-dimethylfuro[2,3-c]pyridin-2-yl)-7-[(3R)-3-methylpiperazin-1-yl]-2H-chromen-2-one] | < 0.1 µM | < 300 nM | ***** (fold increase >1.65) | –
203 to 206 °C | Cc1cn2cc(-c3cc4ccc(CCNC(C)CO)cc4oc3=O)nc2c(C)n1 (stereo not drawn) [Compound 872, 3-(6,8-dimethylimidazo[1,2-a]pyrazin-2-yl)-7-{2-[(1-hydroxypropan-2-yl)amino]ethyl}-2H-chromen-2-one] | 0.1 to 0.3 µM | 300 to 1000 nM | **** (fold increase between >1.5 and ≤1.65) | –
286 to 292 °C | Cc1cn2cc(-c3cc4ccc(Cn5ccnc5)cc4oc3=O)nc2c(C)n1 [Compound 851, 3-(6,8-dimethylimidazo[1,2-a]pyrazin-2-yl)-7-(1H-imidazol-1-ylmethyl)-2H-chromen-2-one] | 1 to 3 µM | – | *** (fold increase between >1.35 and ≤1.5) | –
190 to 200 °C | Cc1cn2cc(-c3cc4ccc(N5CCC6(CCNC6)C5)cc4oc3=O)nc2c(C)n1 (stereo not drawn) [Compound 945, 7-(2,7-diazaspiro[4.4]non-2-yl)-3-(6,8-dimethylimidazo[1,2-a]pyrazin-2-yl)-2H-chromen-2-one] | < 0.1 µM | < 300 nM | ***** (fold increase >1.65) | –
179 to 182 °C | CN(C)Cc1ccc2cc(-c3nc4c(Cl)cccc4s3)c(=O)oc2c1 [Cpd 14, 3-(4-chloro-1,3-benzothiazol-2-yl)-7-[(dimethylamino)methyl]-2H-chromen-2-one] | 0.3 to 1 µM | – | *** (fold increase between >1.35 and ≤1.5) | –
284 to 285 °C | CN1CCN(c2ccc3cc(-c4cn5ncccc5n4)c(=O)oc3c2)CC1 [Cpd 128, 3-(imidazo[1,2-b]pyridazin-2-yl)-7-(4-methylpiperazin-1-yl)-2H-chromen-2-one] | 1 to 3 µM | 3000 to 10000 nM | *** (fold increase between >1.35 and ≤1.5) | –
280 to 282 °C | Cc1cn2cc(-c3cc4ccc(N5CCN(C)[C@H](C)C5)cc4oc3=O)cnc2n1 [Compound 660, 7-[(3R)-3,4-dimethylpiperazin-1-yl]-3-(2-methylimidazo[1,2-a]pyrimidin-6-yl)-2H-chromen-2-one] | < 0.1 µM | 300 to 1000 nM | ***** (fold increase >1.65) | –
212 to 215 °C | Cc1cn2cc(-c3cc4ccc(N5CCN(CCO)CC5)cc4oc3=O)cc2cn1 [Compound 684, 7-[4-(2-hydroxyethyl)piperazin-1-yl]-3-(3-methylpyrrolo[1,2-a]pyrazin-7-yl)-2H-chromen-2-one] | < 0.1 µM | < 300 nM | **** (fold increase between >1.5 and ≤1.65) | –
262 to 269 °C | Cc1cn2cc(-c3cc4ccc(N5CCC(N)CC5)cc4oc3=O)nc2c(C)n1 [Compound 919, 7-(4-aminopiperidin-1-yl)-3-(6,8-dimethylimidazo[1,2-a]pyrazin-2-yl)-2H-chromen-2-one] | < 0.1 µM | < 300 nM | **** (fold increase between >1.5 and ≤1.65) | –
